We go through 103 compounds from the OPERA property sets (Mansouri et al. 2018).

Where a SMILES comes first, the peptide text is derived from it.

Compound `O=C(O)CCCCCON=C(c1cncnc1)c1cccc(C(F)(F)F)c1` returned a lipophilicity (logP) of 3.65. With `Clc1ccc(C=NOCCc2nnc(-c3ccccc3)o2)cc1` the figure was 3.01; with `CC1CCC(C)N1C(=O)Nc1ccccc1` (stereo not drawn), 2.33. For `Cc1cccc(OCC2CN=C(N)O2)c1C` (stereo not drawn), the logP turned out to be 2.25. With `CCC(C)C(N)C(=O)NC(C)C(=O)NCC(=O)NC(Cc1ccccc1)C(=O)O` (stereo not drawn) (H-IAGF-OH; configuration not given here) the figure was -1.78.

The compound `CC(=O)c1cc2cccc3ccc4cccc1c4c32` displayed a logP of 4.16.

The compound `COC(=O)c1c(Oc2nc(OC)cc(OC)n2)cccc1C(C)=NOCCCl` displayed a logP of 3.23. The result for `NC1=NCC(CN2CCN(c3ccc([N+](=O)[O-])cc3)CC2)O1` (stereo not drawn) reads 1.23; that for `Cc1nc2c3c(c(C(=O)N(C)C)cn2c1CO)CCC(c1ccccc1)O3` (stereo not drawn), 1.72.

The compound `O=c1cc(-c2c(Cl)cccc2Cl)oc2ccccc12` came in with a logP of 3.79.

Regarding `O=C1C=C(N2CCCCC2)C(=O)N1c1ccc(Cl)cc1`, the logP was found to be 3.4. In turn, `O=[N+]([O-])c1nccn1COCC=CCO` gave a logP of -0.28. `CCCCCCCOc1ccccc1NC(=O)OC(C)CN(CC)CC` (stereo not drawn) came in with a logP of 5.7. With `ClCC1(C(Cl)Cl)C2CC(Cl)(Cl)C1(C(Cl)Cl)CC2(Cl)Cl` (stereo not drawn) the figure was 5.96; with `CC(C)C(N)C(=O)NC(Cc1ccc(O)cc1)C(=O)O` (stereo not drawn) (H-Val-Tyr-OH; configuration not given here), -2.52. `COCC(O)Cn1c(Br)cnc1[N+](=O)[O-]` (stereo not drawn) yielded a logP of 0.16. In turn, `CCOCCOCCOCCCCCNC(=O)NC12CC3CC(CC(C3)C1)C2` showed a log partition coefficient (logP) of 3.6.

The compound `CCC(C)C(N)C(=O)NC(C)C(=O)NC(Cc1ccc(O)cc1)C(=O)NC(Cc1c[nH]c2ccccc12)C(=O)NCC(=O)O` (stereo not drawn) (H-IAYWG-OH; configuration not given here) displayed a logP of -1.47. The result for `CCCON=C(C)c1cccc(Oc2nc(OC)cc(OC)n2)c1C(=O)OC` reads 3.59; that for `COc1cccc2c1OP(=O)(OCC1C=CC(n3cc(C)c(=O)[nH]c3=O)O1)OC2` (stereo not drawn), 0.15. With `Cc1nc2c3c(c(C(=O)N(C)C)cn2c1C)CCC(c1ccccc1F)O3` (stereo not drawn) the figure was 3.6; with `CC(C)(C)[N+]([O-])=Cc1ccccc1[N+](=O)[O-]`, 0.8; with `CC1CC2C3CCC4=CC(=O)C=CC4(C)C3(F)C(O)CC2(C)C1(O)C(=O)COC(=O)CC(C)(C)C` (stereo not drawn), 4.3. In turn, `C#CCOc1noc2c1CNCC2` yielded a logP of 0.4. With `ClCC1(CCl)C2CC(Cl)(Cl)C1(CCl)C(Cl)C2Cl` (stereo not drawn) the figure was 5.23; with `Nc1ccc2cc3ccccc3nc2c1CO`, 1.77; with `CCCc1nc(NCC)nc(N2CCOCC2)n1`, 2.23. `CC(C)C(NC(=O)C(N)Cc1ccccc1)C(=O)NCC(=O)O` (stereo not drawn) (H-Phe-Val-Gly-OH; configuration not given here) registered a logP of -2.33. With `COCc1c(O)c(=O)cc(C)n1C` the figure was -0.42; with `Cc1cc(=O)[nH]nc1/C=C/c1ccc(-n2cnc3c2CCCC3)cc1`, 3.1; with `COC(=O)c1[nH]cc(-c2ccc(Cl)cc2)c1N1CCOCC1`, 3.5. The result for `CC(C)NC(=NC#N)NS(=O)(=O)c1cnccc1Nc1cccc(Cl)c1` reads 2.14; that for `CC(C)CC(NC(=O)C(CC(C)C)NC(=O)C(CC(C)C)NC(=O)C1CCCN1)C(=O)O` (stereo not drawn) (H-PLLL-OH; configuration not given here), -1.06; that for `CC(C)SCc1cc(=O)c(O)co1`, 1.17. With `O=C(NS(=O)(=O)c1cnccc1NC1CCCCCC1)N1CCCCCC1` the figure was 4.43; with `O=C1C=C(N2CC2)C(=O)C=C1N1CC1`, 0.18. Consider `CCCCCCCNc1ncnc2nc[nH]c12`, for which the logP is 3.71. With `CCN(CCO)CCCOc1cc2ncnc(Nc3cc(CC(=O)Nc4cccc(F)c4F)[nH]n3)c2cc1OC` the figure was 3.5; with `CC(C)C(NC(=O)C(N)Cc1ccccc1)C(=O)NC(Cc1ccccc1)C(=O)O` (stereo not drawn) (H-Phe-Val-Phe-OH; configuration not given here), -0.76; with `CCNC(=NC#N)NS(=O)(=O)c1cnccc1NC1CCCCCCC1`, 2.05. On to `CCOc1cccc(COC(=O)C2C(C=C(C)C)C2(C)C)c1` (stereo not drawn), for which the logP came to 5.87.

Take `NC1=NCC(COc2cccc(C(F)(F)F)c2)O1` (stereo not drawn): the log partition coefficient (logP) amounted to 2.35. With `COCCCNc1ncnc2c1ncn2C1OC(CO)C(O)C1O` (stereo not drawn) the figure was -0.17; with `Cc1c(C)c2occc2c2oc(=O)ccc12`, 2.84; with `CCOC(=O)NNc1ccccc1`, 1.22. With `O=C1N=C(N2CCOCC2)CN1Cc1ccc(Br)cc1` the figure was 1.4; with `COC(=O)C(C)NP(=O)(OCC1C=CC(n2cc(C)c(=O)[nH]c2=O)O1)Oc1ccc(Br)cc1` (stereo not drawn), 1.6; with `Cc1ccc(Cl)c(Cc2ccc(Cl)cc2Cl)c1`, 6.38. With `CC(C)C1(C)N=C(c2ncc(Br)cc2C(=O)O)NC1=O` (stereo not drawn) the figure was 1.19; with `CC=C(C)C(=O)OC1CC(C)CCC1C(C)C` (stereo not drawn), 6.2. Consider `O=S(CCl)c1ccccc1` (stereo not drawn), for which the logP turned out to be 1.47. The result for `CC(=O)Oc1ccccc1C(=O)OC1Cc2c(O)cc(O)cc2OC1c1ccc(O)c(O)c1` (stereo not drawn) reads 2.87; that for `COC(=O)C(C)NP(=O)(OCC1C=CC(n2cc(C)c(=O)[nH]c2=O)O1)Oc1ccc([N+](=O)[O-])cc1` (stereo not drawn), 0.9.

`CC1=CC(=C2C(=O)c3ccccc3C2=O)C=C(C)N1CCCNC(=O)N(CCCl)N=O` showed a logP of 2.84. With `COc1ccc2cc(C(C)C(=O)OCCOC(C)=O)ccc2c1` (stereo not drawn) the figure was 3.5; with `CCCc1nc(N2CCOCC2)nc(N(C)C(=O)c2ccccc2)n1`, 2.01; with `O=S(=O)(NC(=S)NC1CCCCC1)c1cnccc1NC1CCCCCCC1`, 5.04. In turn, `CC(C)(O)C1CCC2(C)CCCC(C)(O)C2C1` (stereo not drawn) displayed a logP of 3.04. Turning to `COC(=O)c1[nH]cc(-c2ccc(Br)cc2)c1N1CCOCC1`, the logP came to 3.8. With `CCCC(=NOCC)C1=C(O)CC2(CCCC2)OC1=O` the figure was 3.22; with `N#CCCOC1Cc2c(O)cc(O)cc2OC1c1ccc(O)c(O)c1` (stereo not drawn), 0.96; with `NC(Cc1ccccc1)C(=O)NC(Cc1c[nH]c2ccccc12)C(=O)O` (stereo not drawn), -0.79. `CCc1cccc(CNc2[nH]cnc3ncnc2-3)c1`: the logP was found to be 2.98. The result for `O=C1c2cc(O)ccc2OCN1CCO[N+](=O)[O-]` reads 1.63. With `CCSc1cccc2nc(N)nc(N)c12` the figure was 2.27; with `COc1ccc(NC(=O)OCCN2CCCCC2)cc1`, 2.95; with `OCCN1CCN(CCCOn2nnc3ccccc32)CC1`, 0.43.

With `Cc1oc2nc3oc(=O)ccc3cc2c1C`, the logP was determined as 1.97. `CC(Cl)C(=O)Nc1ccc(C2=NNC(=O)CC2C)cc1` (stereo not drawn) gave a logP of 1.4. The result for `CN(C)CCCC(c1ccccc1)c1ccccc1` reads 4.91; that for `CCCNC1CCc2c(O)cccc2C1C` (stereo not drawn), 2.88.

In the case of `Nc1nc(N)c2c(N3CCOCC3)cccc2n1`, the logP came out at 1.11. With `NC(=O)c1cccc(Cn2cccn2)c1` the figure was 0.71; with `COC(=O)c1cc(NC(=O)Cn2c(C)nc3ccccc3c2=O)cc(C(=O)OC)c1`, 2.98; with `CC(C)C1(C)N=C(c2ncc(-c3ccccc3)cc2C(=O)O)NC1=O` (stereo not drawn), 2.24.

Compound `CC(C)CCCNc1ncnc2c1ncn2C1OC(CO)C(O)C1O` (stereo not drawn) gave a logP of 2.07.

Take `Nc1nnc(-c2cccc(Cl)c2Cl)c(N)n1`: the logP was found to be 2.57. With `NCC(=O)NC(Cc1ccccc1)C(=O)NC(Cc1ccc(O)cc1)C(=O)O` (stereo not drawn) (H-Gly-Phe-Tyr-OH; configuration not given here) the figure was -1.96.

Consider `COc1ccc(Nc2nc(N)nc(O)n2)cc1OC`, for which the lipophilicity (logP) turned out to be 1.76. `O=[N+]([O-])c1ccc(CCBr)cc1`: the logP came to 2.9. Regarding `Cc1nn(-c2cc(CC(Cl)C(=O)O)c(Cl)cc2F)c(=O)n1C(F)F` (stereo not drawn), the logP was 3.36.

As for `CC1CCCCN1CC1CN=C(N)O1` (stereo not drawn), the logP was found to be 0.73. In turn, `CC#CC(O)c1c(C)nc2c3c(c(C(=O)N(C)C)cn12)CCC(c1ccccc1)O3` (stereo not drawn) displayed a logP of 2.7. With `COc1ccc(CCNCC(O)COc2ccc(-c3ncco3)cc2)cc1OC` (stereo not drawn) the figure was 2.6.

`CC1(C)CCC(C(F)(F)F)=[N+]1[O-]`: the logP was 0.2.

`Nc1ccc2nc3ccccn3c2n1`: the logP was 1.38. With `COc1ccc(CCNCC(O)COc2ccc(-c3nc(CN4CCOCC4)c[nH]3)cc2)cc1OC` (stereo not drawn) the figure was 2.4; with `COCCNC(=O)Cn1cnc([N+](=O)[O-])n1`, -0.85. The result for `CC(C)CC(NC(=O)C(CC(C)C)NC(=O)CNC(=O)C(N)Cc1c[nH]c2ccccc12)C(=O)O` (stereo not drawn) (H-WGLL-OH; configuration not given here) reads 0.06. With `COCCOC(=O)C1=C(C)NC(C)=C(C(=O)OCCOC)C1c1cccc2c1OCO2` the figure was 2.93; with `NC1=NCC(CN2CCC(C(=O)c3ccccc3)CC2)O1` (stereo not drawn), 1.05. In turn, `Nc1ccn([C@H]2CS[C@@H](CO)O2)c(=O)n1` gave a logP of -0.93. The result for `C=C(Cl)CON=C(C)c1cccc(Oc2nc(OC)cc(OC)n2)c1C(=O)OC` reads 3.63; that for `O=C(NO)C(=Cc1ccccc1)C(=O)NCc1ccc(F)cc1`, 1.7; that for `COC1C(OC(C)=O)CC(=O)OC(C)CC=CC=CC(=O)C(C)CC(CC=O)C1OC1OC(C)C(OC2CC(CO)C(OC(=O)CC(C)C)C(C)O2)C(N(C)C)C1O` (stereo not drawn), 3.52. For the compound `CCNC(=S)NS(=O)(=O)c1cnccc1NC1CCCCC1`, the logP turned out to be 3.1.

As to `CCCCCNC(=O)N1C(=O)N(C)CC1O` (stereo not drawn), the log partition coefficient (logP) amounted to 1.75. As for `CCCN(CCCCC(NC(C)=O)C(=O)NCc1ccccc1)C(=O)NCCCl` (stereo not drawn), the logP was found to be 1.13. With `CCOC(=O)N1COCc2c1ccc1cc3ccc4c(c3nc21)COCN4C(=O)OCC` the figure was 2.5; with `O=C1C(O)N=C(c2ccccc2)c2cc(Cl)ccc2N1CCO` (stereo not drawn), 1.53; with `NC1=NCC(CN2CCOCC2)O1` (stereo not drawn), -0.22. `c1ccc(Nc2nnc(Cn3ccc4ccccc43)s2)cc1` returned a logP of 3.47.

Compound `Clc1c2ccccc2cc2ccccc12` yielded a logP of 5.27.

The term logP denotes the decadic logarithm of the partition coefficient of the neutral form, usually between octanol and water. A low value points to a more hydrophilic compound.
